Source: patent US8466162B2, “5-alkynyl-pyridines” (Boehringer Ingelheim International GmbH, priority 2011, dated 2013)

Columns and labels:
MB453 cells = assay: alamarBlue MB453 cell assay (antiproliferative/cytotoxicity); assay type: cell-based; settings: Homo sapiens; MDA MB 453 breast cancer cell line
From the text: (§1) The H460, MB453, U87, MCF7 and BT474 alamarBlue cell assays provide EC50 values indicative of the antiproliferative or cytotoxic effects of the compounds to respectively the H460 (human non small cell line cancer), MB-453 (breast cancer cell line), U87 (glioblastoma cell line), MCF7 (breast cancer cell line) and BT474 (breast cancer cell line). As known in the field, antiproliferative or cytotoxic effect against this cell lines would be expected to be indicative of activity in treating lung, breast and brain cancers. See R. Marone R et al. Biochim. Biophys. Acta. 2008 January; 1784(1):159-85. S. Yaguchi et al., J. Natl. Cancer Inst. 2006 Apr. 19; 98(8):545-56.
(§2) Method Type: Antiproliferative/Cytotoxicity
(§3) alamarBlue® is designed to provide a rapid and sensitive measure of cell proliferation and cytotoxicity in various human and animal cell lines. The assay is based on the reduction of alamarBlue in the reducing environment of living (metabolically active) cells. In the presence of added cytotoxic or antiproliferative compounds, the innate metabolic activity ceases.
(§4) AlamarBlue is soluble and stable in culture medium. Measurements are made fluorometrically by exciting at 530-560 nm and measuring emission at 590 nm. In reporting percent alamarBlue reduction by monitoring fluorescence, data are expressed as fluorescence emission intensity units as a function of time of incubation.
(§5) 3. Equipment • 96-well plates, flat bottom (Falcon, Cat. No.: 353072) • 96-well plates, U-shaped (Costar, Cat. No.: 3799) • CO2-Incubator • Microplate Reader, Spectramax Plus, Molecular Devices 4. Typical Procedure • Day 0: Seed 3000 BT-474 cells (IMDM/5% FCS, 1% NEAA, 1% Sodiumpyruvat) in 150 μl medium into a 96-well plate, flat bottom (include mediumblank). Incubate plates at 37° C. in a CO2 incubator overnight. • Day 1: Dilute compounds to a concentration 40 μM ->1:3 in medium, 10 dilution steps, in 96-well plates. • Add 50 μl per well of each dilution (total volume per well 200 μl; final conc. of cpds: 10 μM ->1:3). If required, test further dilutions. • All concentrations are tested in duplicates. • Controls: Cells w/o cpd. (+50 μl medium/DMSO). • Cells are incubated with compounds for 5-6 days. • Day 6 or 7: Add 25 μl of alamarBlue solution to each well and incubate for 8 hours at 37° C. Measure fluorescence by exciting at 530-560 nm and measuring emission at 590 nm 5. Evaluation • Subtract average value for medium blank from sample readings • Calculate EC50 using GraphPad Prism (Fifty)

U87 cells = assay: alamarBlue U87 cell assay (antiproliferative/cytotoxicity); assay type: cell-based; settings: U-87MG human glioblastoma cells
From the text: as §1, §2, §3, §4, §5

MCF7 cells = assay: alamarBlue MCF7 cell assay (antiproliferative/cytotoxicity); assay type: cell-based; settings: MCF7 human breast cancer cell line
From the text: as §1, §2, §3, §4, §5

PI3Kalpha = target: T1, PI3Kalpha (Homo sapiens, UniProt P42336); assay: Inhibition of PI3Kalpha-induced PIP-2 phosphorylation (filter-binding assay, 33P-ATP); assay type: biochemical; settings: PI3 Kinase alpha (p85alpha/His-p110alpha), 1 μM ATP; read-out: IC50 PI3Kα
T1 construct: His (N); made in house; host or cells: SF9 insect cells (baculovirus co-infection)
T1 sequence (P27986 whole entry): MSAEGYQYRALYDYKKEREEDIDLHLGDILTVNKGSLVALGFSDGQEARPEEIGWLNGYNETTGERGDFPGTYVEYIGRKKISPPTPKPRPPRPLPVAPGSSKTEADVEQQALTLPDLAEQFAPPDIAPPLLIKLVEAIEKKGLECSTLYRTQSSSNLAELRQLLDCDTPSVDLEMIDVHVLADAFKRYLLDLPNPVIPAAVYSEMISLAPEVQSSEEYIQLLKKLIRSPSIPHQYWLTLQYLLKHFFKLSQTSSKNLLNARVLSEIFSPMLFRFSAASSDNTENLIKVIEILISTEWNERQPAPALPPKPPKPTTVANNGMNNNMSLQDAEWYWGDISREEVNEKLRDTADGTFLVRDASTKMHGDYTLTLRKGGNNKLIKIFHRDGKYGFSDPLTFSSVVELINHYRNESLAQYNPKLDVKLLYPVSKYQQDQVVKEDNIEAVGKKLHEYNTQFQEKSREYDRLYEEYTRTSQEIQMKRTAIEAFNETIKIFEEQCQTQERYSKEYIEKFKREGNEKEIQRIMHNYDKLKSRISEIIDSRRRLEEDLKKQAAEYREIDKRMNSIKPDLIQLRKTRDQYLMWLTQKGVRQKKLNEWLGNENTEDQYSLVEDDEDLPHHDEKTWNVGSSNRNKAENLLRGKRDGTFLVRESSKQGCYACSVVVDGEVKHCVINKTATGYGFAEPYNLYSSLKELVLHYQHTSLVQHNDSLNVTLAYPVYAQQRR
T1 sequence (P42336 whole entry): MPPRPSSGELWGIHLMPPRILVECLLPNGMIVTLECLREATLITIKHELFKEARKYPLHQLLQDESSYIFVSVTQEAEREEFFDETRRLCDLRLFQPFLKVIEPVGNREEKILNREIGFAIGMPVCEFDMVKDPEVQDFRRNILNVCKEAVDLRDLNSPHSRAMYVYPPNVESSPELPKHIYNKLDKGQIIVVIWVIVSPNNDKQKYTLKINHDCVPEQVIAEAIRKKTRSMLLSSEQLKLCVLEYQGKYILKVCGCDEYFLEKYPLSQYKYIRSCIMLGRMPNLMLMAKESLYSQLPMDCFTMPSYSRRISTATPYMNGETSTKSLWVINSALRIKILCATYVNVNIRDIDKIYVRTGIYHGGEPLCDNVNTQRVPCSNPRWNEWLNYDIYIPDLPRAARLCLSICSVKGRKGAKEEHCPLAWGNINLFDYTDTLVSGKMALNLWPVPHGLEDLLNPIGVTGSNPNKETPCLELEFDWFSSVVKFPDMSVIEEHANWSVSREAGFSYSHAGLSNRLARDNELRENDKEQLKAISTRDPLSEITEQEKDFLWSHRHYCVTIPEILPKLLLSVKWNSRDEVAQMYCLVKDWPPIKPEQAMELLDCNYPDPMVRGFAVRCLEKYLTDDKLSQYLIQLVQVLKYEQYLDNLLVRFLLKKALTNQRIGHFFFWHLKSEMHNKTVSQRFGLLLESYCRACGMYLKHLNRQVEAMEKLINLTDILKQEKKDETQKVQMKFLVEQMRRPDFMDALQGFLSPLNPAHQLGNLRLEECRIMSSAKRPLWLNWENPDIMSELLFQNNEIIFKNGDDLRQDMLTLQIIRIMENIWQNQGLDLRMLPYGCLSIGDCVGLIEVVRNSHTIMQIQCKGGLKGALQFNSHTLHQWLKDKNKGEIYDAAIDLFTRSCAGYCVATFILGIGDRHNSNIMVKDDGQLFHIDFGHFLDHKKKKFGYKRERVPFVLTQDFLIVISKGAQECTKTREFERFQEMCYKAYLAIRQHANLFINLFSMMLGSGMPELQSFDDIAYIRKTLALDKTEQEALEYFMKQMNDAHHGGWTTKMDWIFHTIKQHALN
Description: Biological Methods Inhibition of PI3Kalpha-Induced PIP-2 Phosphorylation
See also J. A. Engelman, Nature Reviews Cancer, 2009, 9, 550-562; A. Carnero, Expert Opin. Investig. Drugs, 2009, 18, 1265-1277 and P. Liu et al., Nature Reviews Drug Discovery, 2009, 8, 627-64.
Method Type: Filter-Binding-Assay
Aliquoted in desired amounts and stored at −80° C. […] Assay Procedure
The substrate-containing lipid vesicles are dissolved to a concentration of 0.637 mg lipid blend/ml assay buffer (with BSA, freshly added) in 50 ml Falcon ->keep on ice, followed by ultrasonication (pulse of 15 sec followed by a pause of 10 sec, 4×). Compounds are serially diluted in assay buffer+6% DMSO and 10 μl of each dilution is added per well of a 96-well plate (compounds are tested in duplicates) and mixed with 30 μl of the lipid vesicles containing PDGFR-Peptide (0.5 μM final) and PI3K alpha (25 ng/well final). The mixture is then incubated for 20 minutes at room temperature.
Subsequently, 20 μl of assay buffer containing 3 μM cold ATP and 0.5 μCi/20 μl 33P-ATP are added. The plates are then incubated at room temperature for 120 minutes (shaking with 300 rpm).
The reaction mix is transferred onto filter plates using “filtermate harvester” from Packard: filter plates are rinsed with PBS, then the reaction mix is filtered onto the filter plate, washed 5 times with PBS and are allowed to dry for 30-60 minutes at 50° C. The plate bottom is sealed with Perkin Elmer white adhesive foil and 25 μl/well Microscint0 are added, the top is covered with transparent adhesive foil and the plate is measured with Wallac Trilux 1450 Microbeta Counter.
As positive control serve wells containing vehicle controls (1% DMSO in assay buffer), showing non-inhibited kinase activity (high values). Wells containing assay buffer instead of enzyme can serve as control for background activity (low values).
Calculate IC50 values using the Smiley program (based on GrapPad Prism)

H460 cells = assay: alamarBlue H460 cell assay (antiproliferative/cytotoxicity); assay type: cell-based; settings: NCI-H460; H460 human lung carcinoma cells
From the text: as §1, §2, §3, §4, §5

BT474 cells = assay: alamarBlue BT474 cell assay (antiproliferative/cytotoxicity); assay type: cell-based; settings: BT-474 human breast cancer cell line, 5-6 days incubation
From the text: as §1, §2, §3, §4, §5

Structure (SMILES) | IC50 (PI3Kalpha) [nM] | EC50 (MB453 cells) [nM] | EC50 (U87 cells) [nM] | EC50 (MCF7 cells) [nM] | EC50 (H460 cells) [nM] | EC50 (BT474 cells) [nM]
Cc1ncc(C#Cc2c(C)ncnc2-c2cccc(CN(C)C)c2)cc1NS(C)(=O)=O [Example 41, N-{5-[4-(3-Dimethylaminomethyl-phenyl)-6-methyl-pyrimidin-5-ylethynyl]-2-methyl-pyridin-3-yl}-methanesulfonamide] | 9 | 1160 | 25000 | 1860 | 2750 | 1280
CCc1ncnc(-c2cccc(F)c2)c1C#Cc1cnc(C)c(NS(C)(=O)=O)c1 [Example 61, N-{5-[4-Ethyl-6-(3-fluoro-phenyl)-pyrimidin-5-ylethynyl]-2-methyl-pyridin-3-yl}-methanesulfonamide] | 1 | 420 | 321 | 454 | 400 | 693
CCc1ncnc(-c2cccc(C#N)c2)c1C#Cc1cnc(C)c(NS(C)(=O)=O)c1 [Example 55, N-{5-[4-(3-Cyano-phenyl)-6-ethyl-pyrimidin-5-ylethynyl]-2-methyl-pyridin-3-yl}-methanesulfonamide] | 3 | 317 | 609 | 126 | 945 | 302
CCc1nc(N)nc(-c2ccc(C(=O)N3CCN(C)CC3)c(F)c2)c1C#Cc1cnc(C)c(NS(=O)(=O)c2ccc(F)cc2F)c1 [Example 32, N-(5-{2-Amino-4-ethyl-6-[3-fluoro-4-(4-methyl-piperazine-1-carbonyl)-phenyl]-pyrimidin-5-ylethynyl}-2-methyl-pyridin-3-yl)-2,4-difluoro-benzenesulfonamide] | 0.28 | 49 | 259 | 23 | 500 | 127
CCc1ncnc(-c2ccc(C)nc2)c1C#Cc1cnc(C)c(NS(C)(=O)=O)c1 [Example 3, N-{5-[4-Ethyl-6-(6-methyl-pyridin-3-yl)-pyrimidin-5-ylethynyl]-2-methyl-pyridin-3-yl}-methanesulfonamide] | 1 | 112 | 410 | 23 | 368 | 177
CCOc1ccc(-c2ncnc(CC)c2C#Cc2cnc(C)c(NS(C)(=O)=O)c2)cc1OCC [Example 23, N-{5-[4-(3,4-Diethoxy-phenyl)-6-ethyl-pyrimidin-5-ylethynyl]-2-methyl-pyridin-3-yl}-methanesulfonamide] | 0.58 | 123 | 470 | 45 | 109 | 119
CCc1ncnc(-c2ccc(CN)nc2)c1C#Cc1cnc(C)c(NS(=O)(=O)c2ccccc2)c1 [Example 106, N-{5-[4-(6-Aminomethyl-pyridin-3-yl)-6-ethyl-pyrimidin-5-ylethynyl]-2-methyl-pyridin-3-yl}-benzenesulfonamide] | 1 | 118 | 213 |  | 393 | 131

Further lines, with some results ahead:

IC50 (PI3Kalpha) [nM] | Structure (SMILES) | EC50 (MB453 cells) [nM] | EC50 (U87 cells) [nM] | EC50 (MCF7 cells) [nM] | EC50 (H460 cells) [nM] | EC50 (BT474 cells) [nM]
0.55 | COc1ncc(C#Cc2c(C)ncnc2-c2ccnc(C)c2)cc1NS(=O)(=O)c1ccc(F)cc1F [Example 44, 2,4-Difluoro-N-{2-methoxy-5-[4-methyl-6-(2-methyl-pyridin-4-yl)-pyrimidin-5-ylethynyl]-pyridin-3-yl}-benzenesulfonamide] | 37 | 121 | 3 | 15 | 23
0.91 | CCc1ncnc(-c2ccnc(OC)c2)c1C#Cc1cnc(C)c(NS(C)(=O)=O)c1 [Example 76, N-{5-[4-Ethyl-6-(2-methoxy-pyridin-4-yl)-pyrimidin-5-ylethynyl]-2-methyl-pyridin-3-yl}-methanesulfonamide] | 148 | 466 | 93 | 207 | 356
1 | CCc1ncnc(-c2ccnc(C)c2)c1C#Cc1cnc(C)c(NS(=O)(=O)c2ccccc2Cl)c1 [Example 11, 2-Chloro-N-{5-[4-ethyl-6-(2-methyl-pyridin-4-yl)-pyrimidin-5-ylethynyl]-2-methyl-pyridin-3-yl}-benzenesulfonamide] | 190 | 686 | 74 | 103 | 
2 | CCc1ncnc(-c2ccnc(C)c2)c1C#Cc1cnc(C)c(NS(=O)(=O)c2ccc(C#N)cc2)c1 [Example 84, 4-Cyano-N-{5-[4-ethyl-6-(2-methyl-pyridin-4-yl)-pyrimidin-5-ylethynyl]-2-methyl-pyridin-3-yl}-benzenesulfonamide] | 190 | 778 | 85 | 769 | 
0.42 | CCc1ncnc(-c2ccc(CNC(=O)OC(C)(C)C)nc2)c1C#Cc1cnc(C)c(NS(=O)(=O)c2ccc(F)cc2F)c1 [Example 48, (5-{5-[5-(2,4-Difluoro-benzenesulfonylamino)-6-methyl-pyridin-3-ylethynyl]-6-ethyl-pyrimidin-4-yl}-pyridin-2-ylmethyl)-carbamic acid tert-butyl ester] | 89 | 89 | 3 | 63 | 26
1 | CCc1ncnc(-c2ccnc(C)c2)c1C#Cc1cnc(C)c(NS(=O)(=O)c2cn(C)cn2)c1 [Example 93, 1-Methyl-1H-imidazole-4-sulfonic acid {5-[4-ethyl-6-(2-methyl-pyridin-4-yl)-pyrimidin-5-ylethynyl]-2-methyl-pyridin-3-yl}-amide] | 149 | 562 | 194 | 293 | 406
0.32 | CCc1ncnc(-c2ccnc(C)c2)c1C#Cc1cnc(C)c(NS(=O)(=O)c2c(F)cccc2F)c1 [Example 103, N-{5-[4-Ethyl-6-(2-methyl-pyridin-4-yl)-pyrimidin-5-ylethynyl]-2-methyl-pyridin-3-yl}-2,6-difluoro-benzenesulfonamide] | 59 | 161 |  | 185 | 53
2 | CCc1ncnc(-c2ccnc(C)c2)c1C#Cc1cnc(C)c(NS(=O)(=O)c2ccc(OC)cc2OC)c1 [Example 98, N-{5-[4-Ethyl-6-(2-methyl-pyridin-4-yl)-pyrimidin-5-ylethynyl]-2-methyl-pyridin-3-yl}-2,4-dimethoxy-benzenesulfonamide] | 437 | 559 |  | 288 | 225
